Reference: patent US20080153896A1, “Polymorphic Forms of an HMG-CoA Reductase Inhibitor and Uses Thereof” (priority 2006, published 2008)

Assay: Stability (integrity) testing of amorphous and polymorphic form under storage conditions, RP-HPLC
Type: physicochemical
Design: key to Impurity RRT 0.738 / Impurity RRT 0.949 / Impurity RRT 1.050 / Impurity RRT 1.550 / Impurity RRT 0.136 / Impurity RRT 0.720 / Impurity RRT 0.706 / Impurity RRT 1.18 / Impurity RRT 1.826: % of total UV absorption (HPLC peak area)
Description: The integrity of the different forms of the (3R, 5R)-7-[2-(4-fluorophenyl)-5-isopropyl-3-phenyl-4-[(4-hydroxymethylphenylamino)carbonyl]-pyrrol-1-yl]-3,5-dihydroxy-heptanoic acid, hemi calcium salt, was tested under different atmospheric conditions to determine the stability of the amorphous and polymorphic form of the drug in various storage environments. Reversed Phase-HPLC (RP-HPLC) was used to separate (3R, 5R)-7-[2-(4-fluorophenyl)-5-isopropyl-3-phenyl-4-[(4-hydroxymethylphenylamino)carbonyl]-pyrrol-1-yl]-3,5-dihydroxy-heptanoic acid, hemi calcium salt, from smaller molecules representing breakdown products as well as oxidized drug. The relative amount of the drug was reported as a percent of total absorption by UV. The total peak area of all UV absorption impurities was used to define total impurity of the drug. Impurities are defined by their relative retention time (RRT) compared to native drug. Samples were injected onto a C18 column using standard temperature, gradient and run-time conditions.
The results of this integrity testing for the amorphous form of (3R, 5R)-7-[2-(4-fluorophenyl)-5-isopropyl-3-phenyl-4-[(4-hydroxymethylphenylamino)carbonyl]-pyrrol-1-yl]-3,5-dihydroxy-heptanoic acid, hemi calcium salt, is shown in Table 5.
Three separate batches of polymorphic Form I of (3R, 5R)-7-[2-(4-fluorophenyl)-5-isopropyl-3-phenyl-4-[(4-hydroxymethylphenylamino)carbonyl]-pyrrol-1-yl]-3,5-dihydroxy-heptanoic acid, hemi calcium salt, were prepared and tested under the same atmospheric conditions described for the amorphous form.

[1] = 25° C./60% RH 3M, hemi calcium salt
[2] = 25° C./60% RH 9M, hemi calcium salt

Description (5° C. 1M): White
Impurity RRT 1.094 (5° C. 1M): 0.157
Impurity RRT 1.437 (5° C. 1M): 0.155
Impurity RRT 1.593 (5° C. 1M): 0.082
Impurity RRT 1.694 (5° C. 1M): 0.069
Assay (5° C. 1M, hemi calcium salt): 98.31 % W/W
Highest Impurity (5° C. 1M, hemi calcium salt): 0.360
Impurity RRT 0.935 (5° C. 1M, hemi calcium salt): 0.360
Impurity RRT 1.045 (5° C. 1M, hemi calcium salt): 0.357
Impurity RRT 1.64 (5° C. 1M, hemi calcium salt): 0.057
Total Impurity (5° C. 1M, hemi calcium salt): 1.237
Water (5° C. 1M, hemi calcium salt): 4.81 % W/W
Description (5° C. 2M): White
Impurity RRT 1.094 (5° C. 2M): 0.161
Impurity RRT 1.180 (5° C. 2M): 0.048
Impurity RRT 1.437 (5° C. 2M): 0.164
Impurity RRT 1.593 (5° C. 2M): 0.085
Impurity RRT 1.694 (5° C. 2M): 0.067
Assay (5° C. 2M, hemi calcium salt): 98.25 % W/W
Highest Impurity (5° C. 2M, hemi calcium salt): 0.380
Impurity RRT 0.935 (5° C. 2M, hemi calcium salt): 0.380
Impurity RRT 1.045 (5° C. 2M, hemi calcium salt): 0.375
Impurity RRT 1.64 (5° C. 2M, hemi calcium salt): 0.051
Total Impurity (5° C. 2M, hemi calcium salt): 1.33
Water (5° C. 2M, hemi calcium salt): 4.61 % W/W
Description (5° C. 3M): White
Impurity RRT 1.094 (5° C. 3M): 0.149
Impurity RRT 1.437 (5° C. 3M): 0.169
Impurity RRT 1.593 (5° C. 3M): 0.077
Impurity RRT 1.694 (5° C. 3M): 0.056
Total Impurity (5° C. 3M): 1.35
Assay (5° C. 3M, hemi calcium salt): 98.20 % W/W
Highest Impurity (5° C. 3M, hemi calcium salt): 0.469
Impurity RRT 0.935 (5° C. 3M, hemi calcium salt): 0.385
Impurity RRT 1.045 (5° C. 3M, hemi calcium salt): 0.469
Impurity RRT 1.64 (5° C. 3M, hemi calcium salt): 0.047
Water (5° C. 3M, hemi calcium salt): 4.97 % W/W
Description (5° C. 4M): White
Impurity RRT 1.094 (5° C. 4M): 0.169
Impurity RRT 1.437 (5° C. 4M): 0.132
Impurity RRT 1.593 (5° C. 4M): 0.071
Impurity RRT 1.694 (5° C. 4M): 0.071
Assay (5° C. 4M, hemi calcium salt): 98.24 % W/W
Highest Impurity (5° C. 4M, hemi calcium salt): 0.419
Impurity RRT 0.935 (5° C. 4M, hemi calcium salt): 0.419
Impurity RRT 1.045 (5° C. 4M, hemi calcium salt): 0.409
Impurity RRT 1.640 (5° C. 4M, hemi calcium salt): 0.067
Total Impurity (5° C. 4M, hemi calcium salt): 1.338
Water (5° C. 4M, hemi calcium salt): 4.43 % W/W
Description (5° C. 5M): White
Impurity RRT 1.094 (5° C. 5M): 0.105
Impurity RRT 1.437 (5° C. 5M): 0.155
Impurity RRT 1.550 (5° C. 5M): 0.587
Impurity RRT 1.694 (5° C. 5M): 0.045
Assay (5° C. 5M, hemi calcium salt): 98.29 % W/W
Highest Impurity (5° C. 5M, hemi calcium salt): 0.587
Impurity RRT 0.935 (5° C. 5M, hemi calcium salt): 0.289
Impurity RRT 1.045 (5° C. 5M, hemi calcium salt): 0.312
Impurity RRT 1.640 (5° C. 5M, hemi calcium salt): 0.024
Total Impurity (5° C. 5M, hemi calcium salt): 1.517
Water (5° C. 5M, hemi calcium salt): 5.55 % W/W
Description (5° C. 6M): White
Impurity RRT 1.094 (5° C. 6M): 0.153
Impurity RRT 1.437 (5° C. 6M): 0.170
Impurity RRT 1.593 (5° C. 6M): 0.081
Impurity RRT 1.694 (5° C. 6M): 0.070
Water (5° C. 6M): 5.04 % W/W
Assay (5° C. 6M, hemi calcium salt): 98.02 % W/W
Highest Impurity (5° C. 6M, hemi calcium salt): 0.423
Impurity RRT 0.935 (5° C. 6M, hemi calcium salt): 0.423
Impurity RRT 1.045 (5° C. 6M, hemi calcium salt): 0.390
Impurity RRT 1.640 (5° C. 6M, hemi calcium salt): 0.053
Total Impurity (5° C. 6M, hemi calcium salt): 1.340
Description (5° C. 9M): White
Impurity RRT 1.094 (5° C. 9M): 0.161
Impurity RRT 1.180 (5° C. 9M): 0.055
Impurity RRT 1.437 (5° C. 9M): 0.170
Impurity RRT 1.593 (5° C. 9M): 0.065
Impurity RRT 1.694 (5° C. 9M): 0.064
Assay (5° C. 9M, hemi calcium salt): 98.12 % W/W
Highest Impurity (5° C. 9M, hemi calcium salt): 0.407
Impurity RRT 0.935 (5° C. 9M, hemi calcium salt): 0.407
Impurity RRT 1.045 (5° C. 9M, hemi calcium salt): 0.407
Impurity RRT 1.640 (5° C. 9M, hemi calcium salt): 0.033
Total Impurity (5° C. 9M, hemi calcium salt): 1.362
Water (5° C. 9M, hemi calcium salt): 5.07 % W/W
Description (5° C. 12M): White
Impurity RRT 1.094 (5° C. 12M): 0.158
Impurity RRT 1.180 (5° C. 12M): 0.022
Impurity RRT 1.437 (5° C. 12M): 0.152
Impurity RRT 1.593 (5° C. 12M): 0.086
Impurity RRT 1.694 (5° C. 12M): 0.068
Assay (5° C. 12M, hemi calcium salt): 97.78 % W/W
Highest Impurity (5° C. 12M, hemi calcium salt): 0.432
Impurity RRT 0.935 (5° C. 12M, hemi calcium salt): 0.417
Impurity RRT 1.045 (5° C. 12M, hemi calcium salt): 0.432
Impurity RRT 1.640 (5° C. 12M, hemi calcium salt): 0.051
Total Impurity (5° C. 12M, hemi calcium salt): 1.413
Water (5° C. 12M, hemi calcium salt): 5.08 % W/W
Assay (25° C./50% RH 6M): 98.01 % W/W
Description (25° C./50% RH 6M): White
Highest Impurity (25° C./50% RH 6M): 0.390
Impurity RRT 0.935 (25° C./50% RH 6M): 0.390
Impurity RRT 1.045 (25° C./50% RH 6M): 0.370
Impurity RRT 1.094 (25° C./50% RH 6M): 0.140
Impurity RRT 1.437 (25° C./50% RH 6M): 0.117
Impurity RRT 1.593 (25° C./50% RH 6M): 0.073
Impurity RRT 1.640 (25° C./50% RH 6M): 0.048
Impurity RRT 1.694 (25° C./50% RH 6M): 0.074
Total Impurity (25° C./50% RH 6M): 1.212
Water (25° C./50% RH 6M): 5.41 % W/W
Description (25° C./60% RH 3M): White
Impurity RRT 1.094 (25° C./60% RH 3M): 0.153
Impurity RRT 1.437 (25° C./60% RH 3M): 0.155
Impurity RRT 1.593 (25° C./60% RH 3M): 0.079
Impurity RRT 1.694 (25° C./60% RH 3M): 0.064
Assay [1]: 98.21 % W/W
Highest Impurity [1]: 0.388
Impurity RRT 0.935 [1]: 0.368
Impurity RRT 1.045 [1]: 0.382
Impurity RRT 1.64 [1]: 0.047
Total Impurity [1]: 1.270
Water [1]: 4.03 % W/W
Description (25° C./60% RH 9M): White
Impurity RRT 1.094 (25° C./60% RH 9M): 0.141
Impurity RRT 1.437 (25° C./60% RH 9M): 0.162
Impurity RRT 1.593 (25° C./60% RH 9M): 0.076
Impurity RRT 1.694 (25° C./60% RH 9M): 0.068
Assay [2]: 98.09 % W/W
Highest Impurity [2]: 0.376
Impurity RRT 0.935 [2]: 0.374
Impurity RRT 1.045 [2]: 0.376
Impurity RRT 1.640 [2]: 0.046
Total Impurity [2]: 1.243
Water [2]: 5.04 % W/W
Description (25° C./60% RH 12M): White
Impurity RRT 1.094 (25° C./60% RH 12M): 0.153
Impurity RRT 1.180 (25° C./60% RH 12M): 0.019
Impurity RRT 1.437 (25° C./60% RH 12M): 0.145
Impurity RRT 1.593 (25° C./60% RH 12M): 0.083
Impurity RRT 1.694 (25° C./60% RH 12M): 0.059
Assay (25° C./60% RH 12M, hemi calcium salt): 97.95 % W/W
SMILES: CC(C)c1c(C(=O)Nc2ccc(CO)cc2)c(-c2ccccc2)c(-c2ccc(F)cc2)n1CC[C@@H](O)C[C@@H](O)CC(=O)[O-].CC(C)c1c(C(=O)Nc2ccc(CO)cc2)c(-c2ccccc2)c(-c2ccc(F)cc2)n1CC[C@@H](O)C[C@@H](O)CC(=O)[O-].[Ca+2] [PP00405, (3R, 5R)-7-[2-(4-fluorophenyl)-5-isopropyl-3-phenyl-4-[(4-hydroxymethylphenylamino)carbonyl]-pyrrol-1-yl]-3,5-dihydroxy-heptanoic acid, hemi calcium salt]
